Experimental data taken from patent US20250161338A1, “Compounds for Anti-aging Intervention” (AGENCY FOR SCIENCE, TECHNOLOGY AND RESEARCH, priority 2022, published 2025).
Entries after “also recorded” stand apart in the source; their conditions may differ.

Columns and labels:
IMR90 cells = assay: CLS in human cells, propidium iodide fluorescence-based method (IMR90); assay type: cell-based; conditions: sixth day after seeding
Protocol: Human embryonic kidney 293 (HEK293) cells (ATCC, Manassas, Virginia, United States of America), lung epithelial (A549) cells (ATCC, Manassas, Virginia, United States of America) and fibroblast (IMR90) cells (ATCC, Manassas, Virginia, United States of America) were cultured in the standard D10 medium, consisting of high-glucose DMEM (HyClone, Cytiva, Marlborough, Massachusetts, USA) supplemented with 10% Fetal Bovine Serum (FBS) (Gibco™, ThermoFisher Scientific, Waltham, Massachusetts, USA) and 1% Penicillin Streptomycin Solution (Gibco™, ThermoFisher Scientific, Waltham, Massachusetts, USA). All cells were cultured in a humidified incubator with 5% CO2 at 37° C.
The stock solution of rapamycin, hemin, 5-fluorouracil, atorvastatin, and methotrexate was prepared in DMSO, followed by serial dilution to form various concentrations used in the experiment. The final DMSO concentration was kept at 0.05% in all experiments. The stock solution of 2,5-anhydro-D-mannitol was prepared in D10 medium. The chemical library used in screening were tested at 1 μM concentrations. Controls used were the same as the solvent applied, DMSO or water.
The assay was performed by preparing the cells with PI (2 μg/mL or 5 μg/mL) in a D10 medium. […] At different age time points, reading was taken with a Synergy MX microplate reader (BioTek, Winooski, Vermont, United States) at 535 nm excitation and 617 nm emission.

[1] = tested on: prototrophic yeast strain (CEN.PK113-7D); assay: Propidium iodide fluorescence-based CLS method in yeast (incl. high-throughput screening); assay type: cell-based, Saccharomyces cerevisiae;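 as to PI intensity: untreated reference is eight DMSO and water control wells per plate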
Method in brief: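 CEN.PK113-7D aged in SD medium at 30 °C with compounds (rapamycin 0–10 nM; sugars 0–8 mM; screen at single concentrations). At each age point cells were stained with 5 μg/mL PI for 15 min; fluorescence was normalized to OD600, background-subtracted, and survival scaled against boiled-cell control.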

[2] = tested on: wild-type Saccharomyces cerevisiae CEN.PK113-7D yeast strain; assay: Chronological lifespan analysis in yeast (PI, outgrowth, spotting); assay type: cell-based
Protocol: Yeast strain was recovered from frozen glycerol stock at 30° C. on YPD agar medium. Yeast was left to propagate in SD medium overnight at 30° C. with shaking at 220 revolutions per minute (rpm). Cells propagated overnight were diluted to a starting optical density at 600 nm (OD600) of approximately 0.2 in fresh SD medium to begin the chronological lifespan (CLS) experiments.
CLS experiments were performed in 96-well plates with 200 μL yeast culture. Cellular inoculums were transferred into 96-well plates containing serially double-diluted concentrations (0 to 10 nM) of rapamycin. […] Cells were incubated at 30° C., and the growth was measured at different time points. The growth time point 72 hours was considered as Day 1 for the CLS assay. Cell survival was quantified at various age time points by three different approaches: (i) PI fluorescence-based method, (ii) outgrowth in YPD liquid medium, and (iii) spotting assay (FIG. 1).
Yeast cells (40 μL) from different age time points were transferred into a second 96-well plate (different to the 96-well plate in which the CLS analysis as outlined above was performed). Cells were washed and incubated in 100 μL 1×phosphate buffered saline (PBS) with propidium iodide (PI) (5 μg/mL) for 15 minutes in the dark. Positive and negative control samples were included for quantitative analysis. Positive control (cells boiled at 100° C. for 15 minutes) was PI-stained and processed in the same 96-well plate. Samples without PI-stained cells served as the negative control. After incubation, cells were washed and resuspended in 100 μL PBS. The fluorescence reading of the samples (excitation and emission wavelengths at 535 nm and 617 nm, respectively) and OD600 were measured with a microplate reader (BioTek, Winooski, Vermont, United States). The fluorescence intensity of each sample was normalized with OD600. The background fluorescence signal of the unstained negative sample was subtracted from the normalized fluorescence intensity of each sample. The obtained fluorescence intensity of the positive control (boiled dead cells) was considered 0% cell survival. Cell death was validated by allowing the boiled dead cells to grow in medium. Cell survival at different age time points of samples were calculated by normalizing the fluorescence intensity with positive control sample (boiled cells).
Yeast stationary culture (3 μL) of different age time points were transferred to a second 96-well plate, containing 200 μL YPD medium, and incubated for 24 hours at 30° C. Outgrowth (OD600) of aged cells was measured by the microplate reader. Quantification of cell survival for each age point was determined as relative to Day 1 (considered 100% cell survival). This quantification was performed by using the formula,
Yeast stationary culture (3 μL) of different age time points were spotted onto a YPD agar plate and incubated for 48 hours at 30° C. The outgrowth of aged cells on the YPD agar plate was photographed using the Bio-Rad GelDoc Imaging System (Bio-Rad, Hercules, California, United States).

OC[C@H]1O[C@H](CO)[C@@H](O)[C@@H]1O [2,5-AM, 2,5-anhydro-D-mannitol]
more live cells compared to the untreated control (IMR90 cells; 2.5 mM): 32.33% | more live cells compared to the untreated control (IMR90 cells; 5 mM): 48.08% | survival of aged cells ([1]; 4 mM and 8 mM, Day 4, without compound approx. 50%): approximately 80% | survival of aged cells ([1]; Day 7, without compound less than 20%): approximately 75% | Yeast CLS increase ([1]; concentration tested 300 μg/mL, Yes/No call of the screen): Yes | PI intensity ([1]; concentration tested 300 μg/mL, solvent water, age point Day 7): 36,240.0 | effect on yeast CLS ([2]; 0 to 8 mM in SD medium, up to day 21): extended the CLS in a concentration-dependent manner; also recorded: extended the lifespan even at the late stage of chronological aging | survival of aged cells ([2]; 8 mM, Day 21, without compound less than 10%): approximately 65% | effect on yeast CLS ([2]; very low concentrations (2 mM)): increased CLS
